The text below walks through data of patent US10500179B2, “Glycine for use in tolerance induction in allergic patients” (N. V. Nutricia, priority 2015, dated 2019).

Molecules are shown by their SMILES.

Experiment [1] deals with RBL-2H3 cells. To be noted: glycine concentration series from 500 μg/ml, 20 hours incubation, concentration dependent. The procedure: RBL-2H3 cells were sensitized by 100 ng/ml mouse IgE α-dinitrophenyl in culture medium (DMEM with 10% FBS and 1% penicillin/[…]) and plate out 100 μl/well in a 96-well flat bottom plate. After 18 hrs of culturing at 37° C. with 5% CO2, the cells were washed 4 times with 200 μl Tyrode's buffer (130 mM NaCl, […], 1.4 mM CaCl2, 1 mM MgCl2, 5.6 mM glucose, 10 mM HEPES, and 0.1% bovine serum albumin in distilled water, pH 7.4). 25 μl glycine in a concentration series starting form 500 μg/ml and diluted 1:1 in Tyrode's buffer (component), 25 μl Tyrode's buffer (controls) or 25 μl quercetin 100 μM (positive control) were added to the cells. 25 μl of DNP-BSA (100 ng/ml) and 50 μl Tyrode's buffer were added to each component well. After 20 hours incubation at 37° C. with 5% CO2 90 μl of the cells supernatant was collected and stored at −80° C. for cytokine analysis by multiplex bead immunoassay.

Experiment [2] relates to Female C3H/HeOuJ mice sensitized against bovine whey protein. To be noted: oral gavage 50 or 100 mg/mouse 24 and 4 hours before sensitization.
The test system of experiment [3] is human peripheral blood mononuclear cells (PBMCs). Kind of experiment: LPS induced TNF-α synthesis by human PBMCs (ELISA). In kind it is cell-based. To be noted: FIG. 3. From the text: The next experiment done by the inventor relates to the question whether amino acids are able to enhance immune effects of free glycine. To investigate this, human peripheral blood mononuclear cells (PBMCs) were stimulated with lipopolysaccharide (LPS) in the presence of free glycine in combination with different levels of free glutamine In short: Human PBMCs were obtained from buffy coats supplied by the blood bank and prepared by Ficoll gradient centrifugation according to standard methods. The recovered PBMCs were washed with PBS and cultured in RPMI-1640 containing, penicillin, streptomycin and 5% Fetal call serum (FCS), 1.5E5 cells/well (96-wells culture plate). The cells were stimulated with LPS (E. coli, 055:B5, 10 ng/ml) for 20 hr after 1 hr pre-incubation with different levels of glycine in combination with different levels of glutamine. The tested levels of glycine and glutamine were also tested separately. TNF-α levels were detected in the supernatant of the cells using an ELISA kit.

As to `NCC(=O)O` [Glycine, glycine], the “crosslinking induced TNFα production” value in experiment [1] (FIG. 1A) is “inhibits”. In experiment [1] (FIG. 1B), the “crosslinking induced IL-4 production” value is given as “inhibits”. Further, in experiment [1] (FIG. 1C), the “crosslinking induced IL-13 production” value was “inhibits”. Besides, the “allergic skin response (ear swelling) after intradermal whey injection” value in experiment [2] (effect concentration dependent, FIG. 2A) is “inhibits the allergy development”. The “mMCP1 release (by intestinal mast cells) after an oral allergen challenge” value in experiment [2] (serum one hour after 50 mg whey oral challenge, FIG. 2B) is on record as “inhibits allergy development”. Besides, the “production of whey-specific IgE” value in experiment [2] (serum, ELISA, FIG. 2C) is recorded as “inhibits”. Besides, the “LPS induced TNF-α synthesis by PBMCs” value in experiment [3] (LPS 10 ng/ml for 20 hr after 1 hr pre-incubation) is listed as “inhibited”.

Take `NC(=O)CC[C@H](N)C(=O)O` [glutamine]: the “effect of glutamine on glycine inhibition of LPS induced TNF-α synthesis” value in experiment [3] (glutamine combined with glycine at specific ratios, LPS 10 ng/ml 20 hr) was “enhanced this effect synergistically”.
